The nature of data set [1]: in vitro. Conditions: human, liver microsomes. On the technique in general: Microsomes from liver hold many membrane-bound enzymes, among them those of drug oxidation.
Data set [2] can be described thus: in vitro. To be noted: mouse, liver microsomes.
The nature of data set [3]: in vitro. Conditions: human, Caco-2.

Molecules are shown by their SMILES.

What is called fraction remaining is what is left of the initial amount, in per cent. Read a high fraction remaining as less turnover. As a reminder, the Papp A→B is the apparent permeability from the apical to the basolateral side of a cell layer. High values mean fast passage, low ones slow passage.

For the compound `C[C@H]1CN(C)CCN1c1cc(NC(=O)Cn2cc(-c3cc(F)c(O)c(C(N)=O)c3F)c3c(=O)n(C)cnc32)c(Cl)c(F)n1`, the share remaining at 1 h in “in vitro [1]” was 16%; in the data set “in vitro [2]”, 43%. Besides, the Papp A→B in “in vitro [3]” was determined as 2.8 ×10⁻⁶ cm/s.

In the case of `C[C@@H]1COCCN1c1cc(NC(=O)Cn2cc(-c3cc(Cl)c(O)c(C(N)=O)c3)c3c(=O)n(C)cnc32)c(Cl)cn1`, the share remaining at 1 h is 55% in the data set “in vitro [1]” and 36% in “in vitro [2]”. The compound further yielded a Papp A→B in the data set “in vitro [3]” of 3 ×10⁻⁶ cm/s.

On to `Cc1nc2c(c(-c3cc(C(N)=O)c(O)c(F)c3F)cn2CC(=O)Nc2cc(N3CCN(C)C[C@@H]3C)ncc2Cl)c(=O)n1C`, for which the amount remaining at 1 h stood at 73% in the data set “in vitro [1]” and 65% in “in vitro [2]”. The compound also showed a Papp A→B in the data set “in vitro [3]” of 4.4 ×10⁻⁶ cm/s.

As for `C[C@H]1COCCN1c1cc(NC(=O)Cn2cc(-c3cc(Cl)c(O)c(C(N)=O)c3)c3c(=O)n(C)cnc32)c(Cl)cn1`, the share remaining at 1 h in “in vitro [1]” was determined as 27%; in the data set “in vitro [2]”, 63%. Also, the apparent permeability from apical to basolateral (Papp A→B) in the data set “in vitro [3]” is 3.6 ×10⁻⁶ cm/s.

Turning to `C[C@H]1CN(C)CCN1c1cc(NC(=O)Cn2cc(-c3cc(F)c(O)c(C(N)=O)c3)c3c(=O)n(C)cnc32)c(Cl)cn1`, the fraction remaining at 1 h in the data set “in vitro [1]” turned out to be 62%; in the data set “in vitro [2]”, 49%. For the same compound, the Papp A→B in the data set “in vitro [3]” was 0.5 ×10⁻⁶ cm/s.
